Several values for one entry are separate records, joined by “and”; a condition that tells them apart may be missing. Identical values can stand only once. Entries after “also recorded” stand apart in the source; their conditions may differ. Like-named read-outs stand apart in the source and are kept apart here.
How the values were obtained:
P450cam [1] = molecular target: T1, P450cam (Pseudomonas putida, UniProt P00183); assay: Estimation of koff for the P450cam·camphor complex by metyrapone trapping; type: binding
P450cam [2] = molecular target: T1, P450cam; assay: Steady-state substrate binding titrations; conditions: for Reversal of the high-spin spectral change at high ligand concentration: camphor up to 2 mM
P450tcu = conditions: 5-exo hydroxylation; cited from earlier work
P450cam [3] = molecular target: T1, P450cam; assay: Stopped-flow ligand binding kinetics; conditions: for Dominant binding mechanism: from dependence of eigenvalues on ligand and P450cam concentration; for Binding rate measurable by stopped-flow (ΔA390-A420): dead time 2 ms
P450cam [4] = molecular target: T1, P450cam; conditions: cited from earlier work
P450cam [5] = molecular target: T1, P450cam; assay: Catalytic activity: NADH oxidation with Pdx and PdR; type: biochemical; conditions: for Rate/Kd (specificity constant): NADH oxidation rate divided by Kd
P450cam·Pdx complex = conditions: ref Hollingsworth et al., 46; cited from earlier work
P450cam [6] = molecular target: T1, P450cam; conditions: reported previously; cited from earlier work
Solubility in H2O = type: physicochemical; conditions: water
[7] = 20 mM potassium MOPS (pH 7.4), 200 mM KCl
[8] = eigenvalues vs camphor concentration
[9] = fit to λ = kf + kr·S/(Kd + S), induced fit model

With CC(C)(C(=O)c1cccnc1)c1cccnc1 [metyrapone] the “First-order rate of binding to ligand-free P450cam (k2)” value (P450cam [1]; 2 mM metyrapone (final)) was 18.9 s⁻¹.
For d-(+)-camphor, the “Reversal of the high-spin spectral change at high ligand concentration” value (P450cam [2]; [7]) is listed as “no reversal of the high-spin spectral change was observed; also recorded: did not show any evidence for reversal”, the kcat (P450tcu) is listed as ~ 10 s^−1 and the “Eigenvalue λ of binding” value (P450cam [3]; 6 μM P450cam mixed with 2 μM camphor) is listed as 69 ± 2 s⁻¹. For the same compound, the “Intercept of linear regression of eigenvalues (koff, 2-state system)” value (P450cam [3]; [8]) was 35 ± 4 s⁻¹, the “Slope of linear regression of eigenvalues (second-order kon, 2-state system)” value (P450cam [3]; [8]) was 2.4 (± 0.3) × 10^6 M^−1 s^−1 and 2.4 (± 0.3) M^−1 s^−1 and the “kf (kforward), forward rate constant following camphor binding” value (P450cam [3]; [9]) was 112 s⁻¹ and 112 ± 49 s⁻¹. The “kr (kreverse), reverse rate constant” value (P450cam [3]; [9]) was 28 s⁻¹ and 28 ± 7 s⁻¹, the Dominant binding mechanism (P450cam [3]) was “induced fit mechanism” and the kcat (P450cam [4]; Km based on O2 as co-substrate) was 55 to 66 s⁻¹. The “Rate of 5-exo hydroxylation” value (P450cam [4]) was > 10 s⁻¹, the “Specificity constant (rate/Kd)” value (P450cam [4]; reported by others, ref 54) was 340000 M⁻¹ s⁻¹ and the “Specificity constant (rate/Kd)” value (P450cam [4]; reported by others, ref 57) was 1.6e+07 M⁻¹ s⁻¹. The “Rate on the basis of NADH oxidation” value (P450cam [4]; typically reported) was 7 to 14 s⁻¹, the “% relative to camphor (Rate/Kd)” value (P450cam [5]) was 100% and the “Rate/Kd (specificity constant)” value (P450cam [5]) was 7e+06 M⁻¹ s⁻¹. The “koff (k-1) of the P450cam·camphor complex” value (P450cam [1]; 2 μM P450cam, 10 μM camphor mixed with 2 mM metyrapone, KinTek Explorer fit) was 15 s⁻¹, the “kon in the minimal kinetic model” value (P450cam [1]; fit with koff = 15 s^−1 and Kd = […] μM) was 1.5e+07 M⁻¹ s⁻¹ and the “Increase of the Kd of a P450cam·Pdx complex in the presence of camphor” value (P450cam·Pdx complex) was 2 fold.
In the case of CC1(C)CC(=O)CC(C)(C)C1 [3,3,5,5-tetramethylcyclohexanone], the Kd (P450cam [2]) is given as 5 µM, the “Reversal of the high-spin spectral change at high ligand concentration” value (P450cam [2]; [7]) is given as “did reverse the spin state change at higher concentrations” and the Kd (P450cam [6]) is given as 3.5 µM. The solubility (Solubility in H2O) was ≥ 2000 µM, the “Binding rate measurable by stopped-flow (ΔA390-A420)” value (P450cam [3]) was “changes could not be observed” and the “% relative to camphor (Rate/Kd)” value (P450cam [5]) was 0.6%. For the same compound, the “Rate/Kd (specificity constant)” value (P450cam [5]) was 40000 M⁻¹ s⁻¹.
For O=C1C2CC3CC(C2)CC1C3 [2-adamantanone], the Kd (P450cam [2]) is listed as 2.7 µM, the Kd (P450cam [6]) is listed as 34 µM and 45 µM and the solubility (Solubility in H2O) is listed as ≥ 2000 µM. For the same compound, the Exponential of binding (P450cam [3]; 2 μM 2-adamantanone and 1 μM P450cam) was 72 s⁻¹, the Exponential of binding (P450cam [3]; 2 μM 2-adamantanone and 10 μM P450cam) was 82 s⁻¹ and the kobs of binding (P450cam [3]; 2 μM P450cam and 4 μM 2-adamantanone) was 78 ± 2 s⁻¹. For the same compound, the Dominant binding mechanism (P450cam [3]) was “conformational selection”, the Oxidation rate (P450cam [4]; ref White et al., 54) was ~ 1 s^−1 and the Oxidation rate (P450cam [4]; ref White et al., 54, listed as 2-Adamantone) was 1 s⁻¹. The “Specificity constant (rate/Kd)” value (P450cam [4]; reported by others, ref 54) was 240000 M⁻¹ s⁻¹, the “% relative to camphor (Rate/Kd)” value (P450cam [5]) was 19% and the “Rate/Kd (specificity constant)” value (P450cam [5]) was 1.3e+06 M⁻¹ s⁻¹.
For O=C1CC2CC[C@H]1C2 [norcamphor], the Kd (P450cam [2]) is listed as 250 µM, the Kd (P450cam [6]) is listed as 350 µM and the solubility (Solubility in H2O) is listed as ≥ 50000 µM. For the same compound, the “Binding rate measurable by stopped-flow (ΔA390-A420)” value (P450cam [3]) was “changes could not be observed”, the NADH coupling (P450cam [4]) was 15% and the “Rate/Kd (specificity constant)” value (P450cam [5]) was 70000 M⁻¹ s⁻¹.
For (+)-α-pinene, the Kd (P450cam [2]; 20 mM potassium MOPS (pH 7.4), 200 mM KCl, absence of Pdx, 23 °C) is given as 3.4 µM, the Kd (P450cam [6]) is given as 1.1 µM and the kobs of binding (P450cam [3]; 2 μM P450cam and 30 μM (+)-α-pinene) is given as 81 ± 3 s⁻¹. For the same compound, the Dominant binding mechanism (P450cam [3]) was “conformational selection”, the “Specificity constant (rate/Kd)” value (P450cam [4]; based on NADH oxidation) was 1.3e+06 M⁻¹ s⁻¹ and the “Specificity constant (rate/Kd)” value (P450cam [4]; based on product formation) was 300000 M⁻¹ s⁻¹. For the same compound, the NADH coupling (P450cam [4]) was 23% and the Oxidation rate (P450cam [4]; ref Bell et al., 37) was 0.3 s⁻¹.

Reference: article PMC8318206 (ACS catalysis, 2020)
